According to patent US20090176714A1, “METHOD OF REDUCING THE EFFECTS OF ABeta AND COMPOSITIONS THEREFORE” (priority 2004, published 2009):

Assays:
hippocampi of mice = assay: Stereotaxic injection into mouse hippocampus, TTR immunohistochemistry; assay type: in vivo
Procedure: Ten week old B6/SJL mice were stereotaxically injected on the right side of their hippocampi with sAPPα, a 10 amino acid fragment, or a scrambled 10-mer to an estimated 1 nM intra-hippocampal concentration. The contralateral sides were injected with artificial cerebrospinal fluid. Each injection consisted of […] of solution delivered over the period of 10 minutes. 48 hours after surgery, the mice were perfused with cold PBS, and their hippocampi were dissected and stored in stabilizing solution for subsequent RNA extraction.
48 hours after injection, mice were perfused with 4% PFA. The brains were harvested, hemisected, and fixed in 4% PFA overnight. They were then sunk in 30% sucrose for 24 hours, frozen, and sectioned. Sections were stained with cresyl violet for morphological verification of the injection site. Other sections were stained with goat anti-TTR, and biotinylated secondary antibody to show TTR protein expression, and ToPro3 as a nuclear marker. A control for nonspecific staining was done with goat IgG.
FIG. 13 is a set of stained micrographs showing stereotactic injection of sAPPα decamer into hippocampus induces expression of TTR in normal mouse brain. […] Injection of 1.5 μl of 15.3 nM solution prepared in artificial cerebral spinal fluid (CSF) was performed to approximate a final concentration of 1 nM in the hippocampus. The contralateral side was injected with only artificial CSF and used as control. […] The DNA binding dye ToPro3 was used to visualize nuclei (blue).

[1] = system: hippocampal slice cultures; assay: Aβ-induced cell death (EthD-1/calcein AM, % Death) in organotypic hippocampal slice cultures; assay type: cell-based, mouse
Procedure: Pups from C57B6/SJL mice were anaesthetized and decapitated at postnatal day 15. The brain was removed and placed in ice-cold dissecting medium (50% Minimum Essential Medium (Invitrogen, Carlsbad, Calif.), 50% Hank's Balanced Salt Solution (Invitrogen), 25 mM HEPES, and 36 mM glucose). Both hippocampi were dissected under a dissecting microscope and cut at 400 μm on a McIlwain tissue chopper. Slices were separated and placed on filter inserts with a 30 mm diameter and a 0.4 μm filter pore size (Millipore, Billerica, Mass.) held in 6-well culture plates. For the first 3 days, slices were kept in Neurobasal media with B-27 supplement, 1 mM glutamine, and 1% penicillin/streptomycin (Invitrogen). Subsequently, the media was changed every 3 days using media without antibiotics. Organotypic cultures were maintained in a humidified incubator at 37° C. in 5% O2 and 5% CO2 for 14 to 21 days.
Cell death and viability was determined on live slices using the fluorescent probes from Molecular Probes' Live/Dead Kit. After a 40 minute incubation in calcein AM (1:400) and ethidium homodimer (1:1000) in phosphate buffered saline, slices were visualized at 200× magnification with an inverted Nikon Diaphot 200 microscope using the Bio-Rad MRC-1024 Laser Scanning Confocal system (Hercules, Calif.). Random images of the neuronal fields were captured at the emission spectrum of each probe, and Scion Image software (Frederick, Md.) was used to quantify the number of live and dead cells. At least three areas including a neuronal field were imaged and used to determine the percent death for each slice. The percent death was calculated as the number of EthD-1 positive cells divided by the total number of EthD-1 and calcein AM positive cells.
β-amyloid1-42 and reverse Aβ (Aβ42-1) were obtained from BACHEM (Torrance, Calif.). These polypeptides were dissolved in 0.1% NH3OH at 222 μM. For treatments, Aβ was aggregated at 50 μM in Neurobasal media with B-27 supplement and 1 mM glutamine at 37° C. for 24 hours. Then, the slice culture media was removed, and the slices were treated with 1 mL of 25 μM or 50 μM Aβ, reverse Aβ, or vehicle for 24 hours. Human TTR (Calbiochem) or IGF-2 (Peprotech, Rocky Hill, N.J.) was added to slices together with the Aβ treatment at final concentrations of 3 μM (TTR) or 500 nM (IGF-2). sAPPα was prepared as described previously (Mattson et al., Neuron, 10:243-254 (1993)).
Unless otherwise stated, all sAPPα treatments were performed at 1 nM 48 hours prior to the addition of Aβ. Antibodies against TTR (C-20) or IGF-2 (F-20; 4 μg/mL; Santa Cruz) or sAPPα (6E10; 10 μg/mL; Chemicon) were added to slices together with the sAPPα treatment. Goat IgG (4 μg/mL; Santa Cruz) or mouse IgG1 (10 μg/mL; Chemicon) was added as a control. The 10 amino acid fragment of the carboxyl-terminal region of sAPPα (592-601 of APP695; SEVKMDAEFR; SEQ ID NO:1; Sigma) was added according to the same protocol for sAPPα.
SiRNA's were created based on the mouse mRNA sequences using the Ambion Silencer siRNA Construction Kit (Austin, Tex.). Several siRNA's were created by in vitro transcription for each silenced gene. Transfection was performed for 4 hours at 37° C. prior to vehicle or sAPPα treatment using 25 nM siRNA combined with the polyamines in the Ambion siPORT Amine Transfection Agent. Transfections were performed in Neurobasal media with 1 mM glutamine (Invitrogen). The successful mRNA target sequences are as follows, TTR: 5′-[…]-3′ (SEQ ID NO:16) and 5′-[…]-3′ (SEQ ID NO:17); IGF-2: 5′-AA-GGGGATAGAGATGTGAGAG-3′ (SEQ ID NO:18) and 5′-AAATTATGTGGT-AATTCTGCA-3′ (SEQ ID NO:19); IGF-1R: 5′-[…]-3′ (SEQ ID NO:20) and 5′-[…]-3′ (SEQ ID NO:21).
β-amyloid1-42 and reverse Aβ (Aβ42-1) were obtained from BACHEM (Torrance, Calif.). These peptides were dissolved in 0.1% NH3OH at 222 μM. For treatments, Aβ was aggregated at 50 μM in Neurobasal media with B-27 supplement and 1 mM glutamine at 37° C. for 24 hours. […]

[2] = 1 nM 48 hours prior to 25 μM Aβ (24 hours), FIG. 7

Substance | TTR after injection into hippocampus (hippocampi of mice; preliminary data) | Protection against Aβ-induced death (% Death) [1, 2] | Protection against Aβ-induced death (% Death) ([1]; 1 nM 48 h prior to 25 μM Aβ (24 h), FIG. 12A) | Protection against Aβ-induced death (% Death) ([1]; 1 nM 48 h prior to 25 μM Aβ (24 h), FIG. 12A, listed as tetramer) | Protection against Aβ-induced death (% Death) ([1]; 48 h prior to 25 μM Aβ (24 h), FIG. 12B, 1 nM, final concentration of 1 mM) | Protection against Aβ-induced death (% Death) ([1]; 48 h prior to 25 μM Aβ (24 h), FIG. 12B, 1 nM, final concentration of 1 mM, listed as tetramer) | Amount of TTR in and around the CA1 hippocampal neurons, immunohistochemistry (hippocampi of mice; 1.5 μl of 15.3 nM solution (about 1 nM final) vs contralateral CSF injected hippocampus, FIG. 13) | Levels of TTR within treated hippocampi (hippocampi of mice; estimated 1 nM intra-hippocampal concentration, 48 hours after injection) | Protection against Aβ-induced death (% Death, EthD-1 positive cells) ([1]; 1 nM added 48 hours prior to 25 μM or 50 μM Aβ (24 hours), FIG. 4A) | Percent death compared to treatment with vehicle ([1]; 25 μM Aβ, 24 hours) | Neurons that lost membrane integrity (EthD-1 positive) / percent death ([1]; 25 μM or 50 μM Aβ, 24 hours, compared to reverse Aβ)
DAEF [peptide of 4 residues within the 10 residue peptide (residues 597-600)] | increased TTR | sufficient to protect | protects against the Aβ-induced toxicity | completely protected | protects against the Aβ-induced toxicity | completely protected | – | – | – | – | –
SEVKMDAEFR | – | completely protected | – | – | – | – | increased the amount of TTR | increased levels of TTR | mimics the protective effect of sAPPα | – | –
β-amyloid1-42 [Aβ] | – | – | – | – | – | – | – | – | – | dramatic and significant increase | dramatic increase
